Test in all cases: relative viability (nuclei count vs DMSO), 5 days (fraction); higher = more cells survive
Compound in the test “Dactolisib + AZD7762”: Cn1c(=O)n(-c2ccc(C(C)(C)C#N)cc2)c2c3cc(-c4cnc5ccccc5c4)ccc3ncc21 [Dactolisib] + NC(=O)Nc1cc(-c2cccc(F)c2)sc1C(=O)N[C@H]1CCCNC1 [AZD7762] (partner 0.2 µM)
The procedure, abridged:
(§1)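 One day after seeding in 1536-well plates, lung cancer cell lines were dosed by pin tool. Dosing was either single-drug or a fixed anchor-drug dose plus five library-drug doses (not always all listed) in √10 steps. After 5 days, nuclei were stained in one fix-and-stain step and counted on 4× images, and relative viability is the nuclei count of treated wells over that of vehicle wells, given as the median of duplicate plates.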

Compound in the test “AZ505 + Crizotinib”: C1CCC(CC1)N(CCNCCC2=C3C(=C(C=C2)O)NC(=O)CO3)C(=O)CCNCCC4=CC(=C(C=C4)Cl)Cl [AZ505] + C[C@@H](Oc1cc(-c2cnn(C3CCNCC3)c2)cnc1N)c1c(Cl)ccc(F)c1Cl [Crizotinib] (partner 1 µM)
The method in brief:
as §1

Compound in the test “Dactolisib + Bortezomib”: Cn1c(=O)n(-c2ccc(C(C)(C)C#N)cc2)c2c3cc(-c4cnc5ccccc5c4)ccc3ncc21 [Dactolisib] + CC(C)C[C@H](NC(=O)[C@H](Cc1ccccc1)NC(=O)c1cnccn1)B(O)O [Bortezomib] (partner 0.002 µM)
The method in brief: as §1

Compound in the test “AZ505 + Bortezomib”: C1CCC(CC1)N(CCNCCC2=C3C(=C(C=C2)O)NC(=O)CO3)C(=O)CCNCCC4=CC(=C(C=C4)Cl)Cl [AZ505] + CC(C)C[C@H](NC(=O)[C@H](Cc1ccccc1)NC(=O)c1cnccn1)B(O)O [Bortezomib] (partner 0.002 µM)
The procedure, abridged: as §1

Take LU99A: the relative viability was found to be 0.305 in the test with Dactolisib + AZD7762 (first compound 0.002 µM); 0.247 with Dactolisib + AZD7762 (first compound 0.006325 µM); 0.263 with Dactolisib + AZD7762 (first compound 0.02 µM); 0.166 in the test with Dactolisib + AZD7762 (first compound 0.06325 µM); 0.127 with Dactolisib + AZD7762 (first compound 0.2 µM); 0.474 with AZ505 + Crizotinib (first compound 0.08 µM). Also, the relative viability amounted to 0.592 with AZ505 + Crizotinib (first compound 0.253 µM); 0.594 with AZ505 + Crizotinib (first compound 0.8 µM); 0.638 with AZ505 + Crizotinib (first compound 2.53 µM); 0.575 with AZ505 + Crizotinib (first compound 8 µM); 1.12 in the test with Dactolisib + Bortezomib (first compound 0.002 µM); 0.903 in the test with Dactolisib + Bortezomib (first compound 0.006325 µM). The relative viability in the test with Dactolisib + Bortezomib (first compound 0.02 µM) was 0.543; with Dactolisib + Bortezomib (first compound 0.06325 µM) it was 0.366; with Dactolisib + Bortezomib (first compound 0.2 µM), 0.249; in the test with AZ505 + Bortezomib (first compound 0.08 µM), 1.02; in the test with AZ505 + Bortezomib (first compound 0.253 µM), 1.08; in the test with AZ505 + Bortezomib (first compound 0.8 µM), 1.05. In addition, the relative viability with AZ505 + Bortezomib (first compound 2.53 µM) and with AZ505 + Bortezomib (first compound 8 µM) was 1.18 throughout.
Consider NCI-H2347, for which the relative viability with Dactolisib + AZD7762 (first compound 0.002 µM) worked out at 0.75; with Dactolisib + AZD7762 (first compound 0.006325 µM), 0.78; with Dactolisib + AZD7762 (first compound 0.02 µM), 0.715; with Dactolisib + AZD7762 (first compound 0.06325 µM), 0.532; in the test with Dactolisib + AZD7762 (first compound 0.2 µM), 0.458; in the test with AZ505 + Crizotinib (first compound 0.08 µM), 0.518. For the same cell line, the relative viability with AZ505 + Crizotinib (first compound 0.253 µM) was 0.55; with AZ505 + Crizotinib (first compound 0.8 µM) it was 0.433; in the test with AZ505 + Crizotinib (first compound 2.53 µM), 0.443; with AZ505 + Crizotinib (first compound 8 µM) it was 0.559; with Dactolisib + Bortezomib (first compound 0.002 µM) it was 0.809; with Dactolisib + Bortezomib (first compound 0.006325 µM), 0.916. Also, the relative viability is 0.894 with Dactolisib + Bortezomib (first compound 0.02 µM); 0.691 with Dactolisib + Bortezomib (first compound 0.06325 µM); 0.402 in the test with Dactolisib + Bortezomib (first compound 0.2 µM); 0.801 with AZ505 + Bortezomib (first compound 0.253 µM); 0.75 in the test with AZ505 + Bortezomib (first compound 0.8 µM); 0.681 with AZ505 + Bortezomib (first compound 8 µM).
As to NCI-H2009, the relative viability was found to be 0.989 with AZ505 + Crizotinib (first compound 0.08 µM); 1.03 with AZ505 + Crizotinib (first compound 0.253 µM); 0.976 with AZ505 + Crizotinib (first compound 0.8 µM); 1 with AZ505 + Crizotinib (first compound 2.53 µM); 0.976 in the test with AZ505 + Crizotinib (first compound 8 µM); 1.07 with Dactolisib + Bortezomib (first compound 0.002 µM). In addition, the relative viability with Dactolisib + Bortezomib (first compound 0.006325 µM) amounted to 1.01; with Dactolisib + Bortezomib (first compound 0.02 µM), 0.972; in the test with Dactolisib + Bortezomib (first compound 0.06325 µM) it was 0.44; with Dactolisib + Bortezomib (first compound 0.2 µM) it was 0.288; in the test with AZ505 + Bortezomib (first compound 0.08 µM), 0.982; in the test with AZ505 + Bortezomib (first compound 0.253 µM), 0.929. In addition, the relative viability with AZ505 + Bortezomib (first compound 0.8 µM) is 1.04; with AZ505 + Bortezomib (first compound 2.53 µM), 0.657; with AZ505 + Bortezomib (first compound 8 µM), 0.901.
In the case of COR-L23, the relative viability worked out at 0.42 with AZ505 + Crizotinib (first compound 0.08 µM); 0.621 with AZ505 + Crizotinib (first compound 0.253 µM); 0.518 with AZ505 + Crizotinib (first compound 0.8 µM); 0.567 in the test with AZ505 + Crizotinib (first compound 2.53 µM); 0.385 with AZ505 + Crizotinib (first compound 8 µM); 1.21 with Dactolisib + Bortezomib (first compound 0.002 µM). Moreover, the relative viability in the test with Dactolisib + Bortezomib (first compound 0.006325 µM) came to 0.803; with Dactolisib + Bortezomib (first compound 0.02 µM), 0.765; in the test with Dactolisib + Bortezomib (first compound 0.06325 µM), 0.327; with Dactolisib + Bortezomib (first compound 0.2 µM) it was 0.149; with AZ505 + Bortezomib (first compound 0.08 µM), 0.996; with AZ505 + Bortezomib (first compound 0.253 µM) it was 1.1. For the same cell line, the values for the relative viability with AZ505 + Bortezomib (first compound 0.8 µM), with AZ505 + Bortezomib (first compound 2.53 µM) and with AZ505 + Bortezomib (first compound 8 µM) were 0.888, 0.925 and 0.832, respectively.
Regarding NCI-H1299, the relative viability with AZ505 + Crizotinib (first compound 0.08 µM) is 0.959; with AZ505 + Crizotinib (first compound 0.253 µM) it was 1.06; in the test with AZ505 + Crizotinib (first compound 0.8 µM), 0.969; with AZ505 + Crizotinib (first compound 2.53 µM) it was 0.926; with AZ505 + Crizotinib (first compound 8 µM), 0.988; in the test with Dactolisib + Bortezomib (first compound 0.002 µM) it was 1.02. Also, the relative viability in the test with Dactolisib + Bortezomib (first compound 0.006325 µM) came to 1.05; in the test with Dactolisib + Bortezomib (first compound 0.02 µM), 1.05; with Dactolisib + Bortezomib (first compound 0.06325 µM) it was 0.957; with Dactolisib + Bortezomib (first compound 0.2 µM) it was 0.7; with AZ505 + Bortezomib (first compound 0.08 µM), 1.01; in the test with AZ505 + Bortezomib (first compound 0.253 µM) it was 1.05. For the same cell line, the relative viability with AZ505 + Bortezomib (first compound 0.8 µM) turned out to be 0.926; in the test with AZ505 + Bortezomib (first compound 2.53 µM) it was 0.998; in the test with AZ505 + Bortezomib (first compound 8 µM), 1.01.

The record behind these values is the supplement of paper PMC10307832.
